This note sets out measurements from ChEMBL document CHEMBL1781921, “Concise synthesis and CDK/GSK inhibitory activity of the missing 9-azapaullones” (Bioorg Med Chem Lett, 2010).

pIC50: −log10 of the molar value.

In test [1] the target is T1, Glycogen synthase kinase 3 (Plasmodium falciparum (isolate 3D7), UniProt O77344).
T1 sequence (O77344 whole entry): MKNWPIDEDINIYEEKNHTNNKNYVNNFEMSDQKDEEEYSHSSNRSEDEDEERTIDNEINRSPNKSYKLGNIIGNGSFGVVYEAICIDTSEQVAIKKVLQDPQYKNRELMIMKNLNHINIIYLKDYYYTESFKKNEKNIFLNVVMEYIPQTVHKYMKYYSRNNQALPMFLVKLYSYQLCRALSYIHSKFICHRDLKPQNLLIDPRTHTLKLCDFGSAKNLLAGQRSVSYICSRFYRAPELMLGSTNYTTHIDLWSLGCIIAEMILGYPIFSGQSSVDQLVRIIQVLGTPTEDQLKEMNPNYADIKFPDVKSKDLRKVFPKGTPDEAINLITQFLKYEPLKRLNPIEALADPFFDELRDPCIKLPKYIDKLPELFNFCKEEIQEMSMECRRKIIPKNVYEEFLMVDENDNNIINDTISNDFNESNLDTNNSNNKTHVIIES
Nature of the test: Inhibition of Plasmodium falciparum GSK3.

Test [2] has as its target T2, Casein kinase I isoform alpha (Sus scrofa, UniProt O19175).
T2 sequence (O19175 whole entry): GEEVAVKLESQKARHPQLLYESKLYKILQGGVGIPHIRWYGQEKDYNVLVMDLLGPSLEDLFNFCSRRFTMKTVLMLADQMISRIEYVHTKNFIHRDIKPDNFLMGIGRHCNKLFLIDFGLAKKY
Nature of the test: Inhibition of porcine brain CK1 assessed as incorporation of [gamma-33P]-ATP into RRKHAAIGpSAYSITA substrate after 30 mins by scintillation counting.

Test [3] deals with Dual specificity protein kinase CLK1 (Homo sapiens, UniProt P49759). Nature of the test: Inhibition of CLK1.
A further test addresses CDK9/cyclin T1 (Homo sapiens, UniProt P50750). Nature of the test: Inhibition of human recombinant CDK9/cyclin T expressed in insect cells assessed as incorporation of [gamma-33P]-ATP in to pRB fragment (773 to 928) substrate after 30 mins by scintillation counting.
In test [4] the target is Cyclin-dependent kinase 5/CDK5 activator 1 (Homo sapiens, UniProt Q00535). Nature of the test: Inhibition of human recombinant CDK5/p25 assessed as incorporation of [gamma-33P]-ATP into histone H1 substrate after 30 mins by scintillation counting. The test is classed as protein-complex assay.
Test [5] deals with Cyclin-dependent kinase 2/cyclin A (Homo sapiens, UniProt P24941). Nature of the test: Inhibition of human recombinant CDK2/cyclin A assessed as incorporation of [gamma-33P]-ATP into histone H1 substrate after 30 mins by scintillation counting. Format: protein-complex assay.
The target in test [6] is Dual specificity tyrosine-phosphorylation-regulated kinase 1A (Rattus norvegicus, UniProt Q63470). Nature of the test: Inhibition of rat recombinant GST-fused DYRK1A expressed in Escherichia coli assessed as assessed as incorporation of [gamma-33P]-ATP into myelin basic protein after 30 mins by scintillation counting.
Test [7] can be described thus: Inhibition of M-phase starfish oocytes CDK1/cyclin B assessed as incorporation of [gamma-33P]-ATP into histone H1 substrate after 30 mins by scintillation counting. The test is classed as cell-based, Asteroidea. The following applies: oocyte.

Chain of CDK9/cyclin T1 (O60563 whole entry, the tested form may be a part): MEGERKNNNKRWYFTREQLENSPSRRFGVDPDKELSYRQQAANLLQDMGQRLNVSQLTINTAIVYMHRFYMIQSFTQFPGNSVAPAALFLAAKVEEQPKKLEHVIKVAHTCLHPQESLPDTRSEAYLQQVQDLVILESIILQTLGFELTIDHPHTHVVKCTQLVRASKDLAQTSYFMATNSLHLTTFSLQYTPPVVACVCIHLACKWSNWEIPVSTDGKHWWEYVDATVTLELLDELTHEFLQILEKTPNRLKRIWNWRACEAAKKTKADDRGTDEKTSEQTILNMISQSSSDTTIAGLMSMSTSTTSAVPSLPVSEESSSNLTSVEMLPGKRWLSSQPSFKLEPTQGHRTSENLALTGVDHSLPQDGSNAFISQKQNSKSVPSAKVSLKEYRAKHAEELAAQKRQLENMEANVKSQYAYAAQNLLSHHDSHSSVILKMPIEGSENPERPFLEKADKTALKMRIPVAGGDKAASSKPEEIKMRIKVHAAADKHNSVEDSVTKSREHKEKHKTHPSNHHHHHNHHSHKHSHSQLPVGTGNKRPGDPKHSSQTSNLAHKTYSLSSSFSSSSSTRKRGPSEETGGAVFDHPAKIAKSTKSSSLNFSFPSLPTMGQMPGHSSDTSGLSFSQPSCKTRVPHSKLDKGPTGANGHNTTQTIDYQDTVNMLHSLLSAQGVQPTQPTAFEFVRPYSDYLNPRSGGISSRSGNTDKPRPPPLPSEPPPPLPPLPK
Chain of CDK9/cyclin T1 (P50750 whole entry, the tested form may be a part): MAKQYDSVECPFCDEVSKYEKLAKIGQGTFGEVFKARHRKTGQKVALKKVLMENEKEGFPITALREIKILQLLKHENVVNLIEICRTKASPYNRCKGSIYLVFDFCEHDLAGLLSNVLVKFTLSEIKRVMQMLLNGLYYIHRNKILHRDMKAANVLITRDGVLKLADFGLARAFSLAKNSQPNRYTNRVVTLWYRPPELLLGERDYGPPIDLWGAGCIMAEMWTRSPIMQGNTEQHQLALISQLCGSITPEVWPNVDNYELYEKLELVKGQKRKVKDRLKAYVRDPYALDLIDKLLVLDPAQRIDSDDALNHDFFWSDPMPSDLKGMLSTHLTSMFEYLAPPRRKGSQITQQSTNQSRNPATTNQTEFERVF
Chain of Dual specificity protein kinase CLK1 (P49759 whole entry, the tested form may be a part): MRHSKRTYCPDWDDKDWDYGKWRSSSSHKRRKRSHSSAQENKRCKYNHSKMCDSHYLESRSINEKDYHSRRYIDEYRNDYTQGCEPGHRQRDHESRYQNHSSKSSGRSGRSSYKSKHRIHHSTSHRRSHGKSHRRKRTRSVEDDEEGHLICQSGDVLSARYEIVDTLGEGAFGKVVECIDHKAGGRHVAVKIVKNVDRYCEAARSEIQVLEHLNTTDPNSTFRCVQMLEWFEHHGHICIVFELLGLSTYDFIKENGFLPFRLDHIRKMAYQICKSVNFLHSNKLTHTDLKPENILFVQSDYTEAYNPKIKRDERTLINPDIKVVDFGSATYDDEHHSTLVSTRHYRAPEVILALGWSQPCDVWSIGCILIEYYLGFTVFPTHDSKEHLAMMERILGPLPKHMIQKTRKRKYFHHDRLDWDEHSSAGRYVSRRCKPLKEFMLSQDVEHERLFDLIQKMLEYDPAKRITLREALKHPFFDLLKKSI
Chain of Cyclin-dependent kinase 5/CDK5 activator 1 (Q00535 whole entry): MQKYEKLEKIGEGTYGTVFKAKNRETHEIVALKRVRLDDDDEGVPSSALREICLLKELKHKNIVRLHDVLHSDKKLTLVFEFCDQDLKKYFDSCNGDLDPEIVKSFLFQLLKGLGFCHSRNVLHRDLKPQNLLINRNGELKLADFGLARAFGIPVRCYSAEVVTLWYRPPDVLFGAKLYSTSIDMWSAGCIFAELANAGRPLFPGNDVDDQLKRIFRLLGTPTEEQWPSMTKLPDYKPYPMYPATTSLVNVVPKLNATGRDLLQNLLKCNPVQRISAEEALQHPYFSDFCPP
Chain of Cyclin-dependent kinase 5/CDK5 activator 1 (Q15078 whole entry, further chain): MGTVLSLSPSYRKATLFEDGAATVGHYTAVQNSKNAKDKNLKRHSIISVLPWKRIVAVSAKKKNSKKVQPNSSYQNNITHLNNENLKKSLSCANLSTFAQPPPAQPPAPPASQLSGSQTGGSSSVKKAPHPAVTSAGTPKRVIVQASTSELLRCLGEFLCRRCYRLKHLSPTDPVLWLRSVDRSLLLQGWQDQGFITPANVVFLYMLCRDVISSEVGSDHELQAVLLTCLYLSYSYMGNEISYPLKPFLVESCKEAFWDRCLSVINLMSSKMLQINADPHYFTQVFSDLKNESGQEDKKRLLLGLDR

Regarding `O=C1Cc2c([nH]c3ccncc23)-c2ccccc2N1`, the pIC50 in test [1] was below 5.00; in test [2] it was below 5.00; in test [3], below 5.00; at CDK9/cyclin T1 it was 6.66; in test [4], 5.52; in test [5] it was 5.68.
For the compound `O=C1Cc2c([nH]c3cc[n+](Cc4ccccc4)cc23)-c2ccccc2N1`, the negative-log IC50 (pIC50) in test [1] is below 5.00; in test [2], below 5.00; in test [3] it was below 5.00; on CDK9/cyclin T1, 5.13; in test [4], below 5.00; in test [6] it was below 5.00. Besides, the pIC50 in test [7] and in test [5] was below 5.00 in each case.
As for `O=C1Cc2c([nH]c3cc[n+]([O-])cc23)-c2ccccc2N1`, the pIC50 in test [1] is below 5.00; in test [2], below 5.00; in test [3], below 5.00; at CDK9/cyclin T1, 6.62; in test [4], 5.14; in test [6] it was below 5.00. Moreover, the values for the pIC50 in test [7] and in test [5] were 5.24 and 5.21, respectively.
For `O=C1Cc2c([nH]c3ccc(Br)cc23)-c2ccccc2N1` [KENPAULLONE], the pIC50 in test [1] is below 5.00; in test [2], below 5.00; in test [3] it was below 5.00; at CDK9/cyclin T1, 7.19; in test [6], below 5.00; in test [7], 6.30.
Take `O=C1Cc2c([nH]c3ccccc23)-c2ccccc2N1` [PAULLONE]: the pIC50 is 6.09 on CDK9/cyclin T1, 5.52 in test [7] and 5.57 in test [5].
